Source: ChEMBL document CHEMBL4834472 (J Med Chem, 2021)

Biological target: T1, Receptor-type tyrosine-protein kinase FLT3 (Homo sapiens, UniProt P36888)
T1 sequence (P36888 whole entry): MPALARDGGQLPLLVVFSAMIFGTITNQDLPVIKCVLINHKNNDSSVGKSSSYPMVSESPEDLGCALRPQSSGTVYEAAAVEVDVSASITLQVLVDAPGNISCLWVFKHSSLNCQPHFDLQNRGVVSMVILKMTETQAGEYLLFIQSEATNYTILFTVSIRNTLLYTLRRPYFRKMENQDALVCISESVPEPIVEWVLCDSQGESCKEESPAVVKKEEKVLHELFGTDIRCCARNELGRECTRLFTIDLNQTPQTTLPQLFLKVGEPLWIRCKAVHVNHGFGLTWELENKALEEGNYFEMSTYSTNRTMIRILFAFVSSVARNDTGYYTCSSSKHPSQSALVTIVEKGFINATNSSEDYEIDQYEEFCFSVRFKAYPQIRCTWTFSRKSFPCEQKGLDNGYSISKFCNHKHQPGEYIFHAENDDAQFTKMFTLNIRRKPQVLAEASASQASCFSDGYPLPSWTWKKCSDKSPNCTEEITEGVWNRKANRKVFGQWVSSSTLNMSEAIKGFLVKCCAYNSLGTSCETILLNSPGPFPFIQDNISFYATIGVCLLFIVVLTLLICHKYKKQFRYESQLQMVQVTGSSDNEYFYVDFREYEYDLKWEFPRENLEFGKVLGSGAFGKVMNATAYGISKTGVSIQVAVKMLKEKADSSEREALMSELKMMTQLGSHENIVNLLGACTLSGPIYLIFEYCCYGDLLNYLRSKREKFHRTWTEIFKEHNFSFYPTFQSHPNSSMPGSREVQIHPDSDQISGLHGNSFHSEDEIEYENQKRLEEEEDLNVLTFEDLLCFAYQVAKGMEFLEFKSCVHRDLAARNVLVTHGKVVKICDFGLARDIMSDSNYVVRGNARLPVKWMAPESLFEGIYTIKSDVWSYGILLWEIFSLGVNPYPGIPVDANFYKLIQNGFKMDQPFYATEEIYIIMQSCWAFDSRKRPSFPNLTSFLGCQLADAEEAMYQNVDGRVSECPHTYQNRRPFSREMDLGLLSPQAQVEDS
Assay: Inhibition of wild type FLT3 (unknown origin) using AGLT peptide substrate in presence of [32P]gammaATP by image analyser

Cc1n[nH]c2ccc3nc(-c4c[nH]nc4C(F)(F)F)c4c(c3c12)CCCC4
IC50: 25 nM
